Data set [1] deals with aldehyde oxidase (AOX). Put plainly: Metabolism kinetics of DACA and phthalazine in rabbit cytosol. As to conditions: for kcat: rabbit cytosol.
In data set [2] the test system is aldehyde oxidase (AOX).
The target of data set [3] is T1, aldehyde oxidase (AOX) (Homo sapiens, UniProt Q06278).
T1 sequence (Q06278 1-1338): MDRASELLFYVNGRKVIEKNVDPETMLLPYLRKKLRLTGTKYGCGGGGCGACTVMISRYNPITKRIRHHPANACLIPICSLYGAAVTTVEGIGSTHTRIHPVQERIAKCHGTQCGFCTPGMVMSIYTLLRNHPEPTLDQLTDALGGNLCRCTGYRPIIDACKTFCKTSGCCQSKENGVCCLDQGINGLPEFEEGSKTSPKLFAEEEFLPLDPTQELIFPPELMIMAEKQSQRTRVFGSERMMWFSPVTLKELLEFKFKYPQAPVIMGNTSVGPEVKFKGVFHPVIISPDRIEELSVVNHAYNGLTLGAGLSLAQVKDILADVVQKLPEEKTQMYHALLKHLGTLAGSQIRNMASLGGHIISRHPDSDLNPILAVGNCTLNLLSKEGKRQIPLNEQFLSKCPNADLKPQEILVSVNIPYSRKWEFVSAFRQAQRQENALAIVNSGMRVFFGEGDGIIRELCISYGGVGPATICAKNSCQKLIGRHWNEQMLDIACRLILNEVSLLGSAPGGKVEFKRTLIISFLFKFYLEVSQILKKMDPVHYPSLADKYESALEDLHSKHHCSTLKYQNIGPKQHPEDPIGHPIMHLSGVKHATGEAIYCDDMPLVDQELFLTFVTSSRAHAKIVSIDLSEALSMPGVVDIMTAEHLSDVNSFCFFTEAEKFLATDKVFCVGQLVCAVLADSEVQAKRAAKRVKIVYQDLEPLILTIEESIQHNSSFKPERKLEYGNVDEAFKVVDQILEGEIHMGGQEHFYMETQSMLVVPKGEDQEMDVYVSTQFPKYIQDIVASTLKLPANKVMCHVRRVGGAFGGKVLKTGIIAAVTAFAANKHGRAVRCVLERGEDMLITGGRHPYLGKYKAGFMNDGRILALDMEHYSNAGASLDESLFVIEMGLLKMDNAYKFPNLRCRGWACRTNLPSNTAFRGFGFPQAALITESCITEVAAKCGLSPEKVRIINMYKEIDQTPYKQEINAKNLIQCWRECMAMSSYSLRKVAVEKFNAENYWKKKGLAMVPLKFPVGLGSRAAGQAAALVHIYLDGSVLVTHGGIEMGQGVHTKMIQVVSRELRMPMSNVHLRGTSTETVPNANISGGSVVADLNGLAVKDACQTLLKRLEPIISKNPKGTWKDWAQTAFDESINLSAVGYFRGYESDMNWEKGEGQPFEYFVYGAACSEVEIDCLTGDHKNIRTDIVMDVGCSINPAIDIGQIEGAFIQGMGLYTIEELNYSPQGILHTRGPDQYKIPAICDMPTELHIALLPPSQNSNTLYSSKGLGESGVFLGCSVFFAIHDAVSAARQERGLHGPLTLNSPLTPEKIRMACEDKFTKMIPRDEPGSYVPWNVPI

Data set [4] addresses T1, aldehyde oxidase (AOX). Put plainly: Metabolism kinetics of DACA and phthalazine in human cytosol.
Substrate in data set [5]: CN(Cc1cnc2nc(N)nc(N)c2n1)c1ccc(C(=O)N[C@@H](CCC(=O)O)C(=O)O)cc1
Substrate in data set [6]: c1ccc2cnncc2c1
Put plainly: cells, lysate or membranes named. As to conditions: other: human cytosol; unit not given.

What is called kcat is the number of substrate molecules converted per active site and unit of time at saturation. One may read the Km as the concentration of substrate that gives half-maximal velocity. By Vmax is commonly meant the rate approached at saturating substrate. The term kcat/Km denotes the turnover number divided by the Michaelis constant.

Read-outs that look alike come from different tables or passages of the source.

Regarding `CN(C)CCNC(=O)c1cccc2cc3ccccc3nc12` [DACA], the kcat with aldehyde oxidase (AOX) [1] is 182 min⁻¹; at aldehyde oxidase (AOX) [4] it was 2.22 s⁻¹. Moreover, the Km in the data set on aldehyde oxidase (AOX) [2] is 2 µM; at aldehyde oxidase (AOX) [3], 7 µM.
For `c1ccc2cnncc2c1` [phthalazine], the Km in the data set with aldehyde oxidase (AOX) [1] (New Zealand, rabbit, cytosol) was 23 µM. Further, the turnover number (kcat) in the data set with aldehyde oxidase (AOX) [1] is 16,000 min^−1.

B1: AOX1 (Macaca mulatta) (protein)
chain: MDRASELLFYVNGRKVIEKNVDPETMLLPYLRKKLRLTGTKYGCGGGGCGACTVMISRYNPITNRIRHHPANACLIPICSLYGTAVTTVEGIGSTHTRIHPVQERIAKCHGTQCGFCTPGMVMSIYTLLRNHPEPTLDQLTDALGGNLCRCTGYRPIIDACKTFCETSGCCQSKENGVCCLDQGINGLPEFEEGSKTSPKLFAEEEFLPLDPTQELIFPPELMIMAEKQPQRTRVFGSERMMWFSPVTLKELLEFKFKYPQAPVIMGNTSVGPQVKFKGVFHPVIISPDRIEELSVVNRTHNGLTLGAGLSLAQVKDILADVVQKLPEEKTQTYHALLKHLGTLAGSQIRNMASLGGHIISRHPDSDLNPILAVGNCTLNLLSKEGKRQIPLNEQFLSKCPNADLKPQEILVSVNIPYSRKLEFVSAFRQAQRQENALAIVNSGMRVFFGEGHGIIRELSISYGGVGPATICAKNSCQKLIGRHWNEEMLDTACRLVLEEVSLSGSAPGGKVEFKRTLIISFLFKFYLEVSQILKKMDPIHYPSLADKYESALEDLHSKHHCSTLKYQHMGPKQHPEDPIGHPIMHLSGVKHATGEAIYCDDMPPVDQELFLTFVTSSRAHAKIVSIDLSEALSMPGVVDVITAEHLSDVNSFCFFTEAEEFLATDKVFCVGQLVCAVLADSEVQAKQAAKQVKIVYQDLEPLILTIKEAIQHNSFFEPERKLEYGNVDEAFKVVDQILEGEIHMGGQEHFYMETQSMLVVPKGEDQEMDVYVSTQFPKYIQDIVASTLKLPANKVMCHVKRVGGAFGGKAFKTGVIAAVTAFAANKHGRAVRCVLERGEDMLITGGRHPYLGKYKAGFMNDGRILALDMEHYSNAGNSLDESLLVIEMGLLKMDNAYKFPNLRCRGWACRTNLPSNTAFRGFGFPQAGLITESCIMEVAAKCGLSPEKVRMINMYKEIDQTPYKQEINAKNLIQCWRECMAVSSYSLRKAAVEKFNAENYWKKKGLAMVPLKYPVGLGSRAAGQAAALVHIYLDGSVLVTHGGIEMGQGVHTKMIQVVSRELGMPISNVHLRGTSTETVPNANVSGGSVVADLNGLAVKDACQILLKRLEPIISKNPKGTWKDWAQTAFDESISLSAVGYFRGYESDINWEKGEGHPFEYFVYGAACSEVEIDCLTGDHKNIRTDIVMDVGCSINPAIDIGQIEGAFIQGMGLYTIEELNYSPQGVLHTRGPDQYKIPAICDTPTEFHISLLPPSENSNTLYSSKGLGESGVFLGCSVFFAIHDAVSAARRERGLHGPLSLNSPLTPEKIRMACEDKFTKMIPRDEPGSCVPWNVPI
Regarding B1, in data set [5], the Km is 323 ± 123 µM.

B2: AOX1 (Homo sapiens) (protein)
chain: T1 sequence (Q06278 1-1338)
Turning to B2, in data set [5], the Km worked out at 2800 µM, the Vmax was in the range of 40 to 70 pmol/min/mg and the kcat/Km was 15 M⁻¹ s⁻¹.

B3: aldehyde oxidase (AOX) (Homo sapiens) (protein)
chain: T1 sequence (Q06278 1-1338)
Turning to B3, in data set [6], the catalytic constant (kcat) was 4.37 s⁻¹.

(Values after paper PMC4574636 (Biochemical pharmacology, 2015).)
